Source: US20070224165A1, “Neuroprotective Effects of Gly-Pro-Glu Following Intravenous Infusion” (Neuren Pharmaceuticals Limited, priority 2003, published 2007)

Experiments:
[1] = in vivo; details: rat, iv, 30 mg/kg
Experimental: Blood samples (≈220 ul) were collected into heparinized tubes containing 20 μl Sigma protease inhibitor cocktail for mammalian tissues diluted at a 1:9 ratio in 0.1 M PBS (pH=7). The samples were collected at 20, 10 and 0 min before and 1, 2, 4, 8, 16, 32 and 64 min after injection. […] The samples were centrifuged at 3000× g for 15 min at 4° C. and the plasma removed and stored at −80° C. until extraction and assay.

[2] = rat, in vivo, iv, 3 mg/kg
Experimental: (§1) The ED-50 was 195 pg/tube, and the limit of detection was 2 pg/ml. The intra-assay CV was <10% over the range 0.5 to 25 ng/ml. Any samples reading off the standard curve were further diluted before being re-assayed.

[3] = in vivo; details: rat, iv, 3 mg/kg
Experimental: as §1

Pro-Glu in plasma by HPLC [1]: could not be identified
level at 1 min [1]: 33000 ng/mL
time for plasma GPE to decline back to baseline values [2]: ≤ 8 min
level at 8 min [3]: 9.8 ± 1.33 ng/mL
Compound: NCC(=O)N1CCC[C@H]1C(=O)N[C@@H](CCC(=O)O)C(=O)O [GPE, glycine-proline-glutamate]
